Laboratory results taken from US20090317457A1, “ANTI-INFLAMMATORY AND WOUND HEALING EFFECTS OF LYMPHOID THYMOSIN B-4” (Yale University, priority 2002, published 2009).

Assays:
[1] = tested on: neutrophil chemotaxis; settings: chemically-synthesized peptide; reference 8; cited from earlier work
[2] = tested on: human umbilical vein endothelial cells (HUVEC); settings: references 8, 9; cited from earlier work
[3] = tested on: λ-carrageenan induced neutrophil mediated inflammation of the footpad; test: λ-carrageenan-induced footpad inflammation (footpad swelling); type: in vivo, BALB/c mice; settings: for Footpad Thickness (+/− SE): Un-Methionated Thymosin Experiment (A), oxidised peptide
Description: Experimental groups of 8-10 female BALB/c mice, 8-10 weeks of age, were housed in temperature controlled rooms and given food and water ad libitum. Observations and measurements were made by an investigator blinded to the experimental group. λ-Carrageenan injection. After measuring the baseline thickness of the hind footpads with a spring-loaded engineer's micrometer, mice were injected subcutaneously in both hind paws with 340 μg of λ-carrageenan in 40 μl. 6 h., 24 h., and 48 h. after the injection of λ-carrageenan, footpads were re-measured and swelling calculated by subtracting the baseline from the experimental measurements. For each mouse, increases in right and left footpad thickness were averaged. Thymosin peptides were injected as previously described [reference 8]: (i) intraperitoneally with 100 μl of 3.50×10^−5 M peptide solution, 30 minutes before footpad injection; (ii) intradermally into the footpad with 40 μl of 8.75×10^−5 M peptide solution and λ-carrageenan at time 0, and (iii) intraperitoneally with 100 μl of 3.50×10^−5 M peptide solution, 6 h. after footpad injection. For each group, the mean increase in footpad thickness was calculated, and compared to other groups using a one-tailed Student's t-test. The experiment was repeated four times. Statistics. Groups were compared for differences in the meaning using a one-tailed Student's t test; p<0.05 was considered statistically significant.

[4] = tested on: DNFB-induced allergic contact dermatitis of ear skin; test: DNFB allergic contact dermatitis (ACD) ear swelling assay; type: in vivo, FVB mice; settings: for DNFB Ear Thickness (+/− SE): Un-Methionated Thymosin Experiment; for ear thickness: unit not given
Description: Experimental groups of 8-10 female FVB mice, 8-10 weeks of age, were housed in temperature controlled rooms and given food and water ad libitum. Observations and measurements were made by an investigator blinded to the experimental group. Mice were sensitized on day 0 by epicutaneous application to razor-shaved abdominal skin of 25 μl of 0.5% DNFB in a mixture of acetone:olive oil (4:1). Before the challenge with DNFB, mice were injected (i) intraperitoneally with 100 μl of 3.50×10^−5 M thymosin peptide solution (30 minutes before DNFB) and (ii) intradermally with 40 μl of 8.75×10^−5 M peptide solution in both ears (1 min prior to DNFB challenge). On day 5, after measuring baseline ear thickness with an engineer's micrometer, mice were challenged by applying 10 μl of 0.2% DNFB in acetone:olive oil to each side of each ear. Ears were re-measured 6 h., 24 h., and 48 h. after challenge, and data expressed as the response above baseline (i.e., ear thickness 24 h. after challenge minus ear thickness immediately prior to challenge)±1 standard error of the mean (S.E.). For each mouse, increases in right and left ear thickness were averaged. The experiment was repeated twice. Statistics. Groups were compared for differences in the meaning using a one-tailed Student's t test; p<0.05 was considered statistically significant.

[5] = tested on: λ-carrageenan induced neutrophil mediated inflammation of the footpad; settings: oxidised form; reference 8; cited from earlier work

N-SDKPDMAEIEKFDKSKLKKTETQEKNPL-PSKETIEQEKQAGES-C (SEQ ID NO:1) [UTβ4]
neutrophil chemotaxis in vitro [1]: inhibit neutrophil chemotaxis in vitro
closure of scratch wounds in endothelial cell and keratinocyte monolayers in vitro [2]: promote the closure
suppression of footpad inflammation relative to PBS ([3]; 6 h): 12%
suppression of footpad inflammation relative to PBS ([3]; 24 h): 30%
footpad thickness ([3]; 24 h, unit not given): 0.37±0.03
suppression of footpad inflammation relative to PBS ([3]; 48 h): 31%
Footpad Thickness (+/− SE) ([3]; forty-eight hours after λ-carrageenan): 0.41 ± 0.04 mm
Footpad Thickness (+/− SE) ([3]; six hours after λ-carrageenan, increase over baseline): 0.53 ± 0.03 mm
Footpad Thickness (+/− SE) ([3]; twenty-four hours after λ-carrageenan): 0.37 ± 0.03 mm
suppression of ACD ear swelling response relative to PBS ([4]; 6 h): −4%
ear swelling response compared to mice receiving PBS or UTβ4 (FIG. 4A) ([4]; 6 h, 24 h and 72 h after challenge): no significant suppression
suppression of ACD ear swelling response relative to PBS ([4]; 24 h): 5%
suppression of ACD ear swelling response relative to PBS ([4]; 72 h): 2%
DNFB Ear Thickness (+/− SE) ([4]; forty-eight hours after challenge): 19.90 ± 1.02 .01 mm
DNFB Ear Thickness (+/− SE) ([4]; six hours after challenge): 9.85 ± 0.66 .01 mm
DNFB Ear Thickness (+/− SE) ([4]; twenty-four hours after challenge): 22.68 ± 1.33 .01 mm
ear thickness ([4]; seventy-two hours): 19.90±1.02
ear thickness ([4]; six hours): 9.85±0.66
ear thickness ([4]; twenty-four hours): 22.68±1.33
inhibition of λ-carrageenan-induced edema/inflammation in the mouse footpad [5]: active
